Experimental data reported in article PMC12577307, “Genetically encoded biosensor enabled mining, characterisation and engineering of aromatic acid MFS transporters” (Journal of Biological Engineering, 2025).

How the values were obtained:
[1] = molecular target: T1, PcakA.Ant (Comamonas antarctica, UniProt A0A6N1X255); assay: uptake-coupled PcaV-sfGFP biosensor dose response in P. putida KT2440 delta-pcaK; assay type: cell-based
T1 construct: gene HUK68_11000; full-length transporter expressed in Pseudomonas putida KT2440 delta-pcaK with PcaV-sfGFP reporter plasmid; 4,5-cleavage pathway operon
T1 sequence (A0A6N1X255 1-458): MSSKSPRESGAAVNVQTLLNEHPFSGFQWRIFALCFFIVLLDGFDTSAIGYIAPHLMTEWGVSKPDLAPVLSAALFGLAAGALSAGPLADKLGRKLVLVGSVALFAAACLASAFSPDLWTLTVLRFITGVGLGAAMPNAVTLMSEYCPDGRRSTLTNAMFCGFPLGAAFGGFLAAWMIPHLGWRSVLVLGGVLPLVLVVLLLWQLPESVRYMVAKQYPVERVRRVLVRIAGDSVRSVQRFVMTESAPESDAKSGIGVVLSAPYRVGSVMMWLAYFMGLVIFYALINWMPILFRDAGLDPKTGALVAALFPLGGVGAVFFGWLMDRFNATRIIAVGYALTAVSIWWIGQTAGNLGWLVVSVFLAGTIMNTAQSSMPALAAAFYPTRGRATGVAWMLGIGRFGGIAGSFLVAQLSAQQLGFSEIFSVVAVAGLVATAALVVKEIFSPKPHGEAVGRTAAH
Text: uptake-coupled PcaV-sfGFP biosensor dose response in P. putida KT2440 delta-pcaK on PcakA.Ant

[2] = molecular target: T2, PcaKN.Ani (Neisseria animalis, UniProt A0A5P3MSQ9); assay: as above; assay type: cell-based
T2 construct: gene D0T90_09335; full-length transporter expressed in Pseudomonas putida KT2440 delta-pcaK with PcaV-sfGFP reporter plasmid; 4,5-cleavage pathway operon
T2 sequence (A0A5P3MSQ9 entry or part of it): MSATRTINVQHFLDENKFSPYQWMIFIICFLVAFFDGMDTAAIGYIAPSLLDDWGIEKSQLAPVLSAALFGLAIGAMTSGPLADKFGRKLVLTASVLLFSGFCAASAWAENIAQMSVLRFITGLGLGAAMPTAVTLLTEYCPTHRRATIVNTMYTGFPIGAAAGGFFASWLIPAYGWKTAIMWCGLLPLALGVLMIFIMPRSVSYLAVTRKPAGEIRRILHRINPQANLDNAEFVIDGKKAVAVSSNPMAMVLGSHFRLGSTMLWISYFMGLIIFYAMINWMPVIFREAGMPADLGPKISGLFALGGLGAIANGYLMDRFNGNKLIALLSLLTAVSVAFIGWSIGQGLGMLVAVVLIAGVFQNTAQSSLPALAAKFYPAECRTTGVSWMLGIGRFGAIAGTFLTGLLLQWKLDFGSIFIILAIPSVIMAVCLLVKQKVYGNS
Text: uptake-coupled PcaV-sfGFP biosensor dose response in P. putida KT2440 delta-pcaK on PcaKN.Ani

[3] = tested on: T3, PcaKB.Mas; assay: as above; assay type: cell-based, Bacillus massiliglaciei; settings: whole-cell transporter-biosensor EC50 (reflects transporter plus PcaV sensor); LB, 3 h, 0.01-5 mM PCA
T3 construct: gene pcaK; full-length transporter expressed in Pseudomonas putida KT2440 delta-pcaK with PcaV-sfGFP reporter plasmid; 2,3-cleavage pathway operon
Text: uptake-coupled PcaV-sfGFP biosensor dose response in P. putida KT2440 delta-pcaK on PcaKB.Mas

[4] = molecular target: T4, PcaKP.Put (Pseudomonas putida, UniProt Q51955); assay: as above; assay type: cell-based
T4 construct: gene pcaK; full-length transporter expressed in Pseudomonas putida KT2440 delta-pcaK with PcaV-sfGFP reporter plasmid
T4 sequence (Q51955 1-448): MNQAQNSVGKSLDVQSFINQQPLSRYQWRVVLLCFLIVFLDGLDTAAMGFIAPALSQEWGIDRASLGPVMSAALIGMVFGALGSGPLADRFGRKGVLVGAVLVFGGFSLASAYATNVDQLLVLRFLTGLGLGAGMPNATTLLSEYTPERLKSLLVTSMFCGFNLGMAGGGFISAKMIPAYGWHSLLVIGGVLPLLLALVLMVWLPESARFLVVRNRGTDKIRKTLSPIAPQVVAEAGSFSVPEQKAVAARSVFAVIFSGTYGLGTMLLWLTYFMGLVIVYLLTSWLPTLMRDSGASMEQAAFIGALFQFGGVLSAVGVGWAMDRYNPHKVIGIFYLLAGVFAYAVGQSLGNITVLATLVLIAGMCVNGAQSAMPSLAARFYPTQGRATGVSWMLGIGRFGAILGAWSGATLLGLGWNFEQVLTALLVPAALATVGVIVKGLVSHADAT
Text: uptake-coupled PcaV-sfGFP biosensor dose response in P. putida KT2440 delta-pcaK on PcaKP.Put

[5] = molecular target: T5, TphKP.Man (Pseudomonas mandelii, UniProt A0A024E7Y9); assay: uptake-coupled TphR-sfGFP biosensor dose response in P. putida KT2440; assay type: cell-based
T5 construct: gene tpaK; full-length transporter expressed in Pseudomonas putida KT2440 with TphR-sfGFP reporter plasmid
Text: uptake-coupled TphR-sfGFP biosensor dose response in P. putida KT2440 on TphKP.Man

[6] = tested on: T6, TphKS.Hor; assay: as above; assay type: cell-based, Saccharopolyspora hordei; settings: whole-cell transporter-biosensor EC50 (reflects transporter plus TphR sensor); LB, 16 h, 0.005-1 mM TPA
T6 construct: gene tphK; full-length transporter expressed in Pseudomonas putida KT2440 with TphR-sfGFP reporter plasmid
Text: uptake-coupled TphR-sfGFP biosensor dose response in P. putida KT2440 on TphKS.Hor

[7] = tested on: T7, TphKP.Um; assay: as above; assay type: cell-based, Pseudomonas umsongensis; settings: whole-cell transporter-biosensor EC50 (reflects transporter plus TphR sensor); LB, 16 h, 0.005-1 mM TPA
T7 construct: gene tphK; full-length transporter expressed in Pseudomonas putida KT2440 with TphR-sfGFP reporter plasmid
Text: uptake-coupled TphR-sfGFP biosensor dose response in P. putida KT2440 on TphKP.Um

[8] = molecular target: T8, TphKR.Op (Rhodococcus opacus, UniProt A0A1B1KG70); assay: as above; assay type: cell-based
T8 construct: gene tpaK; full-length transporter expressed in Pseudomonas putida KT2440 with TphR-sfGFP reporter plasmid
T8 sequence (A0A1B1KG70 1-459): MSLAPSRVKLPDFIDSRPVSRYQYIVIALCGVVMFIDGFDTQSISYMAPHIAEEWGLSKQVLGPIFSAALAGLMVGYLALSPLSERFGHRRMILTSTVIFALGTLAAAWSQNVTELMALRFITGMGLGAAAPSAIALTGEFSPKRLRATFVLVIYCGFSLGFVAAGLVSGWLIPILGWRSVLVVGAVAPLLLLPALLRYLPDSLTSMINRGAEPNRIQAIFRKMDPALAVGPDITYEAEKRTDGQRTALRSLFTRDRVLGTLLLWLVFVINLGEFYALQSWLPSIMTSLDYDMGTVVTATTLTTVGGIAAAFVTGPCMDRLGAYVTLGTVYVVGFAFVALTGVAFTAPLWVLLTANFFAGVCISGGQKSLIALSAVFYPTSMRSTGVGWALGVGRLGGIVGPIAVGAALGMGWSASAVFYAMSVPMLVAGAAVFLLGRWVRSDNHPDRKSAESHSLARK
Text: uptake-coupled TphR-sfGFP biosensor dose response in P. putida KT2440 on TphKR.Op

[9] = tested on: T9, TphKS.Nap; assay: as above; assay type: cell-based, Sphingobium naphthae; settings: whole-cell transporter-biosensor EC50 (reflects transporter plus TphR sensor); LB, 16 h, 0.005-1 mM TPA
T9 construct: gene tphK; full-length transporter expressed in Pseudomonas putida KT2440 with TphR-sfGFP reporter plasmid
Text: uptake-coupled TphR-sfGFP biosensor dose response in P. putida KT2440 on TphKS.Nap

[10] = tested on: T10, TphKR.Pyr; assay: as above; assay type: cell-based, Rhodococcus pyridinivorans; settings: whole-cell transporter-biosensor EC50 (reflects transporter plus TphR sensor); LB, 16 h, 0.005-1 mM TPA
T10 construct: gene tphK; full-length transporter expressed in Pseudomonas putida KT2440 with TphR-sfGFP reporter plasmid
Text: uptake-coupled TphR-sfGFP biosensor dose response in P. putida KT2440 on TphKR.Pyr

[11] = tested on: T11, TphKB.Pac; assay: as above; assay type: cell-based, Bradyrhizobium pachyrhizi; settings: whole-cell transporter-biosensor EC50 (reflects transporter plus TphR sensor); LB, 16 h, 0.005-1 mM TPA
T11 construct: gene tphK; full-length transporter expressed in Pseudomonas putida KT2440 with TphR-sfGFP reporter plasmid
Text: uptake-coupled TphR-sfGFP biosensor dose response in P. putida KT2440 on TphKB.Pac

Row | Compound | EC50 [1] [µM] | EC50 [2] [µM] | EC50 [3] [µM] | EC50 [4] [µM] | EC50 [5] [µM] | EC50 [6] [µM] | EC50 [7] [µM] | EC50 [8] [µM] | EC50 [9] [µM] | EC50 [10] [µM] | EC50 [11] [µM]
1 | O=C(O)c1ccc(O)c(O)c1 [P2, protocatechuic acid] | 735 | 847 | 1710 | 2050 | – | – | – | – | – | – | –
2 | O=C(O)c1ccc(C(=O)O)cc1 [T3, terephthalic acid] | – | – | – | – | 14.4 | 39.6 | 19.1 | 79.2 | 1.96 | 10.7 | 17.1
